Reference: US12569497B2, “Use of HCN inhibitors for treatment of cancer” (The University of Hong Kong, priority 2017, dated 2026)
Structures can show the parent of a compound that is named as a salt.

Tests used:
[1] = cited from earlier work
[2] = tested on: breast cancer cell line MCF7; assay: MTT proliferation assay, MCF7; type: cell-based; conditions: 200 μM, 5 days, vs double distilled water
Experimental: (§1) Ivabradine was purchased (Sigma). The powder was dissolved into double-distilled water.
(§2) MCF10A, MCF7, ZR75-1, BT474, MDA-MB-231, MDA-MB-453, Ishikawa, SW1116, PLC/PRF/5, MHCC-97L and Huh7 cells were seeded in 96-well plate with cell density 5000 cells per well. 200 μM of Ivabradine was used for cell treatment while double distilled water was used as control. […] MTT solution was prepared at 5 mg/mL in PBS and was filtered through a 0.2 μm filter. Then, 50 μl of MTT plus 200 μl of culture medium were added into each well. Cells were incubated for 4 hours at 37° C. with 5% CO2, 95% air and complete humidity. After 4 hours, the medium with MTT solution was removed and replaced with 200 μl of isopropanol with 4 mmol/L HCl and 0.1% NP-40. The 96-well plate was further incubated for 5 min at room temperature. The optical density of the wells was determined using a plate reader at a test wavelength of 570 nm and a reference wavelength of 630 nm.

[3] = tested on: breast cancer cell line BT474; assay: MTT proliferation assay, BT474; type: cell-based; conditions: 200 μM, 5 days, vs double distilled water
Experimental: as §1, §2

[4] = tested on: TNBC cell line MDA-MB-231; assay: MTT proliferation assay, MDA-MB-231; type: cell-based; conditions: 200 μM, 5 days, vs double distilled water
Experimental: as §1, §2

[5] = tested on: TNBC cell line MDA-MB-453; assay: MTT proliferation assay, MDA-MB-453; type: cell-based; conditions: 200 μM, 5 days, vs double distilled water
Experimental: as §1, §2

[6] = tested on: cancer cell line Ishikawa; assay: MTT proliferation assay, Ishikawa; type: cell-based; conditions: 200 μM, 7 days, vs double distilled water
Experimental: as §1, §2

[7] = tested on: colon cancer cell line SW1116; assay: MTT proliferation assay, SW1116; type: cell-based; conditions: 200 μM, 3 days, vs double distilled water
Experimental: as §1
MCF10A, MCF7, ZR75-1, BT474, MDA-MB-231, MDA-MB-453, Ishikawa, SW1116, PLC/PRF/5, MHCC-97L and Huh7 cells were seeded in 96-well plate with cell density 5000 cells per well. 200 μM of Ivabradine was used for cell treatment while double distilled water was used as control. 3-(4,5-dimethyl-2-thiazolyl)-2,5-diphenyl-2H-tetrazolium bromide (MTT) assay was performed 24, 48, 72 and 96 hours after Ivabradine treatment. MTT solution was prepared at 5 mg/mL in PBS and was filtered through a 0.2 μm filter. Then, 50 μl of MTT plus 200 μl of culture medium were added into each well. Cells were incubated for 4 hours at 37° C. with 5% CO2, 95% air and complete humidity. After 4 hours, the medium with MTT solution was removed and replaced with 200 μl of isopropanol with 4 mmol/L HCl and 0.1% NP-40. The 96-well plate was further incubated for 5 min at room temperature. The optical density of the wells was determined using a plate reader at a test wavelength of 570 nm and a reference wavelength of 630 nm.

[8] = tested on: liver cancer cell line PLC/PRF/5; assay: MTT proliferation assay, PLC/PRF/5; type: cell-based; conditions: 200 μM, 5 days, vs double distilled water
Experimental: as §1, §2

[9] = tested on: liver cancer cell line MHCC-97L; assay: MTT proliferation assay, MHCC-97L; type: cell-based; conditions: 200 μM, 5 days, vs double distilled water
Experimental: as §1, §2

[10] = tested on: liver cancer cell line Huh7; assay: MTT proliferation assay, Huh7; type: cell-based; conditions: 200 μM, 5 days, vs double distilled water
Experimental: as §1, §2

[11] = tested on: breast cancer cells (MCF7, MDA-MB-231, MDA-MB-453, and BT-474); assay: clonogenic assay, breast cancer cells; type: cell-based; conditions: 200 μM, 2 weeks
Experimental: (§3) For the clonogenic assay, 2000 cells were seeded in 6-well plate. 200 μM of Ivabradine was used to treat the cells while double distilled water was used as negative control. The cells were treated for 14 days. The cells were washed with 1 mL of 1×PBS and then fixed by incubating with 4% paraformaldehyde in PBS for 15 minutes at room temperature. The cells were washed with 1 mL of 1×PBS. The cell colonies were visualized by staining with 0.5% crystal violet (Sigma) solution for 1 hour at room temperature. The cells were washed with tap water. The number of cells equal or greater than 50 cells would be regarded as one colony. Number of colonies was counted. After the counting, stain was extracted by incubating with 500 μL of 10% acetic acid solution. The optical density at 650 nm was measured.

(Ishikawa) = assay: clonogenic assay, Ishikawa; type: cell-based; conditions: 200 μM, 2 weeks
Experimental: as §3

[12] = tested on: colon cancer cells (SW1116); assay: clonogenic assay, SW1116; type: cell-based; conditions: 200 μM, 2 weeks
Experimental: as §3

[13] = tested on: liver cancer cells MHCC-97L; assay: clonogenic assay, MHCC-97L; type: cell-based; conditions: 200 μM, 2 weeks
Experimental: as §3

[14] = tested on: liver cancer cells PLC/PRF/5; assay: clonogenic assay, PLC/PRF/5; type: cell-based; conditions: 200 μM, 2 weeks
Experimental: as §3

[15] = tested on: BT-474 breast cancer cells; assay: apoptosis by flow cytometry (APO-BrdU TUNEL), BT-474; type: cell-based; conditions: 200 μM, 24 hours
Experimental: Cells were seeded in 10 cm dish. […] The cells were washed with 10 mL of 1×PBS. The cells were detached from the dish by treating the cells with 1 mL of Trypsin (Gibco). The cell suspension was transferred to 15 mL centrifuge tube and subjected to centrifugation at 300×g for 5 minutes at room temperature. The cell pellet was kept. The cell pellet was washed with 5 mL of 1×PBS. The cell suspension was centrifuged at 300×g for 5 minutes at room temperature. The cell pellet was resuspended in 5 mL of 4% paraformaldehyde in PBS and place on ice for 15 minutes. The cell suspension was centrifuged at 300×g for 5 minutes. The cell pellet was washed with 5 mL of 1×PBS. After the washing, the cell suspension was centrifuged at 300×g for 5 minutes at room temperature. The cell pellet was resuspended in 0.5 mL of 1×PBS. The cell suspension was added to 5 mL of ice-cold 70% ethanol for 30 minutes. APO-BrdU TUNEL Assay Kit (ThermoFisher, Cat: A23210) was used. For each cell pellet, DNA labelling solution was prepared by mixing 10 μL of reaction buffer, 0.75 μL of TdT enzyme, 8 μL of BrdUTP and 31.25 μL of double distilled water. The cell pellet was resuspended in 50 μL of the DNA-labeling solution. The cell suspension was incubated at 37° C. for 1 hour. […] The cells were analysed by BD LSR Fortessa Analyzer.

[16] = tested on: MDA-MB-231 breast cancer cells; assay: apoptosis by flow cytometry (APO-BrdU TUNEL), MDA-MB-231; type: cell-based; conditions: 200 μM, 72 hours
Experimental: (§4) Cells were seeded in 10 cm dish. When the confluence of cells reached 80%, the cells were treated with 200 μM of Ivabradine or double distilled water for 72 hours. The cells were washed with 10 mL of 1×PBS. The cells were detached from the dish by treating the cells with 1 mL of Trypsin (Gibco). The cell suspension was transferred to 15 mL centrifuge tube and subjected to centrifugation at 300×g for 5 minutes at room temperature. The cell pellet was kept. The cell pellet was washed with 5 mL of 1×PBS. The cell suspension was centrifuged at 300×g for 5 minutes at room temperature. The cell pellet was resuspended in 5 mL of 4% paraformaldehyde in PBS and place on ice for 15 minutes. The cell suspension was centrifuged at 300×g for 5 minutes. The cell pellet was washed with 5 mL of 1×PBS. After the washing, the cell suspension was centrifuged at 300×g for 5 minutes at room temperature. The cell pellet was resuspended in 0.5 mL of 1×PBS. The cell suspension was added to 5 mL of ice-cold 70% ethanol for 30 minutes. APO-BrdU TUNEL Assay Kit (ThermoFisher, Cat: A23210) was used. For each cell pellet, DNA labelling solution was prepared by mixing 10 μL of reaction buffer, 0.75 μL of TdT enzyme, 8 μL of BrdUTP and 31.25 μL of double distilled water. The cell pellet was resuspended in 50 μL of the DNA-labeling solution. […] The cells were analysed by BD LSR Fortessa Analyzer.

[17] = tested on: MDA-MB-453 breast cancer cells; assay: apoptosis by flow cytometry (APO-BrdU TUNEL), MDA-MB-453; type: cell-based; conditions: 200 μM, 72 hours
Experimental: as §4

[18] = tested on: BT-474 breast cancer cells; assay: cell cycle flow cytometry (propidium iodide), BT-474; type: cell-based; conditions: 200 μM, 24 hours
[19] = tested on: MDA-MB-231 breast cancer cells; assay: cell cycle flow cytometry (propidium iodide), MDA-MB-231; type: cell-based; conditions: 200 μM, 72 hours
[20] = tested on: MDA-MB-453 breast cancer cells; assay: cell cycle flow cytometry (propidium iodide), MDA-MB-453; type: cell-based; conditions: 200 μM, 72 hours
Experimental: as §4, with “Analyzer. […]” for “Analyzer.”

MDA-MB-231 xenografts = assay: tumor xenograft growth in nude mice, MDA-MB-231; type: in vivo, female nude mice; conditions: MDA-MB-231 xenograft, 15 mg kg^−1 day^−1 IP, 15 days
Experimental: (§5) The effects of Ivabradine suppression on triple negative breast cancer was investigated in a female nude mouse model with MDA-MB-231 and MDA-MB-453 cells. The cell lines mixed with Matrigel (BD Biosciences) at the ratio of 1:1 were inoculated into the abdominal mammary fat pad of the 5 to 6 week old female nude mice. When the tumors were palpable, the mice were randomized into two groups, each consisting of eight animals. Each group was treated with Ivabradine (15 mg/kg day-1) or water. All reagents were administered via intraperitoneal delivery. Tumor sizes were measured by caliper and tumor volume was calculated as (length*width*width)/2. This protocol has been reviewed and approved by Committee on the Use of Live Animals in Teaching and Research (CULATR), the University of Hong Kong.
(§6) Tumor growth was compared between treatment and control groups (P<0.001). After 15 days (MDA-MB-231) or 18 days (MDA-MB-453) of the treatment, tumors were isolated and recorded by photo.

MDA-MB-453 xenografts = assay: tumor xenograft growth in nude mice, MDA-MB-453; type: in vivo, female nude mice; conditions: MDA-MB-453 xenograft, 15 mg kg^−1 day^−1 IP, 18 days
Experimental: as §5, §6

COc1cc2c(cc1OC)CC(=O)N(CCCN(C)C[C@H]1Cc3cc(OC)c(OC)cc31)CC2 [Ivabradine hydrochloride salt]
solubility in water [1]: over 5 mg/ml

COc1cc2c(cc1OC)CC(=O)N(CCCN(C)C[C@H]1Cc3cc(OC)c(OC)cc31)CC2 [Ivabradine, 1.7,8-dimethoxy-3-(3-(((4,5-dimethoxybenzocyclobutan-1-yl)methyl)methylamino)propyl)-1,3,4,5-tetrahydro-2H-benzazepin-2-one]
proliferation (MTT) [2]: significantly reduced the proliferation
proliferation (MTT) [3]: significantly reduced the proliferation
proliferation (MTT) [4]: significantly reduced the proliferation
proliferation (MTT) [5]: significantly reduced the proliferation
proliferation (MTT) [6]: significantly reduced the proliferation
proliferation (MTT) [7]: significantly reduced the proliferation
proliferation (MTT) [8]: significantly reduced the proliferation
proliferation (MTT) [9]: significantly reduced the proliferation
proliferation (MTT) [10]: significantly reduced the proliferation
colony formation and proliferation (clonogenic assay) [11]: suppression of breast cancer colony formation and proliferation
colony formation and proliferation (clonogenic assay) ((Ishikawa)): suppression of ovarian cancer colony formation and proliferation
colony formation and proliferation (clonogenic assay) [12]: suppression of colon cancer colony formation and proliferation
colony formation and proliferation (clonogenic assay) [13]: suppression of liver cancer colony formation and proliferation
colony formation and proliferation (clonogenic assay) [14]: suppression of liver cancer colony formation and proliferation
apoptosis [15]: significantly induces apoptosis
apoptosis [16]: significantly induces apoptosis
apoptosis [17]: significantly induces apoptosis
cell cycle arrest [18]: induced sub-G1 cell cycle arrest
cell cycle arrest [19]: induced sub-G1 cell cycle arrest
cell cycle arrest [20]: induced sub-G1 cell cycle arrest
tumor growth (MDA-MB-231 xenografts): significantly suppress tumor growth
tumor growth (MDA-MB-453 xenografts): significantly suppress tumor growth
solubility in water [1]: about 0.02 mg/ml
